From patent US6277829A, “Process for preparing of aqueous formulation for opthalmic use” (S.I.F.I. Societa Industria Farmaceutica Italiana S.p.A., priority 1999, dated 2001)
In brackets after ≈: the same amount, converted by molar mass.

Tests used:
[1] = tested on: H. influenzae ATCC 9006; assay: In vitro antibacterial activity, MIC; type: cell-based; details: Haemophilus influenzae
From the text: (§1) In vitro bacteriostatic/bactericidal activity of azithromycin in different ophthalmic solutions has been evaluated as a function of ([H+]). Assessment of the activity it has been carried out by standardized method recommended by the National Committee for Clinical Laboratory Standards (NCCLS). In particular, three azithromycin solutions at different pH (6.5, 7.2, 7.8) in citrate-phosphate have been examined. Accordingly, three aliquots of Mueller-Hinton broth have been adjusted to the same pH of the azithromycin solutions (three) to be tested.
(§2) MIC values (μg/ml) have been measured by turbidity standard method after incubation of azithromycin aliquots, at the different pH, ranging from 18 to 24 h. Incubation for Staphylococcus spp. and Pseudomonas spp. needs aerobic conditions whereas Streptococcus spp. and Haernophilus spp. require partial anaerobic conditions during the period of incubation (5%, CO2).
(§3) Concentration of azithromycin able to inhibit the growth of the bacteria, after the period of incubation, is defined as the minimum inhibitory concentration (MIC).

[2] = tested on: H. influenzae ATCC 49247; assay: In vitro antibacterial activity, MIC; type: cell-based; details: Haemophilus influenzae
From the text: as §1, §2, §3

[3] = tested on: Ps. aeruginosa ATCC 27853; assay: In vitro antibacterial activity, MBC; type: cell-based; details: Pseudomonas aeruginosa
Description: as §1, with “In particular, three azithromycin solutions at different pH (6.5, 7.2, 7.8) in citrate-phosphate have been examined.” left out, “tested. […] Incubation for Staphylococcus spp. and Pseudomonas spp. needs aerobic conditions whereas Streptococcus spp. and Haernophilus spp. require partial anaerobic conditions during the period of incubation (5%, CO2).” for “tested.”

[4] = tested on: S. aureus ATCC 29213; assay: In vitro antibacterial activity, MBC; type: cell-based; details: Staphylococcus aureus
Description: as §1, with “In particular, three azithromycin solutions at different pH (6.5, 7.2, 7.8) in citrate-phosphate have been examined.” left out, “tested. […] Incubation for Staphylococcus spp. and Pseudomonas spp. needs aerobic conditions whereas Streptococcus spp. and Haernophilus spp. require partial anaerobic conditions during the period of incubation (5%, CO2).” for “tested.”

[5] = tested on: S. aureus ATCC 6538P; assay: In vitro antibacterial activity, MBC; type: cell-based; details: Staphylococcus aureus, ATCC6538P
Description: as §1, with “In particular, three azithromycin solutions at different pH (6.5, 7.2, 7.8) in citrate-phosphate have been examined.” left out, “tested. […] Incubation for Staphylococcus spp. and Pseudomonas spp. needs aerobic conditions whereas Streptococcus spp. and Haernophilus spp. require partial anaerobic conditions during the period of incubation (5%, CO2).” for “tested.”

[6] = tested on: S. epidermidis ATCC 12228; assay: In vitro antibacterial activity, MBC; type: cell-based; details: Staphylococcus epidermidis
Description: as §1, with “In particular, three azithromycin solutions at different pH (6.5, 7.2, 7.8) in citrate-phosphate have been examined.” left out, “tested. […] Incubation for Staphylococcus spp. and Pseudomonas spp. needs aerobic conditions whereas Streptococcus spp. and Haernophilus spp. require partial anaerobic conditions during the period of incubation (5%, CO2).” for “tested.”

[7] = tested on: Ps. aeruginosa ATCC 9027; assay: In vitro antibacterial activity, MBC; type: cell-based; details: Pseudomonas aeruginosa
Description: as §1, with “In particular, three azithromycin solutions at different pH (6.5, 7.2, 7.8) in citrate-phosphate have been examined.” left out, “tested. […] Incubation for Staphylococcus spp. and Pseudomonas spp. needs aerobic conditions whereas Streptococcus spp. and Haernophilus spp. require partial anaerobic conditions during the period of incubation (5%, CO2).” for “tested.”

[8] = tested on: S. aureus ATCC 25923; assay: In vitro antibacterial activity, MBC; type: cell-based; details: Staphylococcus aureus
Description: as §1, with “In particular, three azithromycin solutions at different pH (6.5, 7.2, 7.8) in citrate-phosphate have been examined.” left out, “tested. […] Incubation for Staphylococcus spp. and Pseudomonas spp. needs aerobic conditions whereas Streptococcus spp. and Haernophilus spp. require partial anaerobic conditions during the period of incubation (5%, CO2).” for “tested.”

[9] = tested on: St. Pneumoniae ATCC 49619; assay: In vitro antibacterial activity, MBC; type: cell-based; details: Streptococcus pneumoniae
Description: as §1, with “In particular, three azithromycin solutions at different pH (6.5, 7.2, 7.8) in citrate-phosphate have been examined.” left out, “tested. […] Incubation for Staphylococcus spp. and Pseudomonas spp. needs aerobic conditions whereas Streptococcus spp. and Haernophilus spp. require partial anaerobic conditions during the period of incubation (5%, CO2).” for “tested.”

[10] = tested on: H. influenzae ATCC 9006; assay: In vitro antibacterial activity, MBC; type: cell-based; details: Haemophilus influenzae
Description: as §1, with “In particular, three azithromycin solutions at different pH (6.5, 7.2, 7.8) in citrate-phosphate have been examined.” left out, “tested. […] Incubation for Staphylococcus spp. and Pseudomonas spp. needs aerobic conditions whereas Streptococcus spp. and Haernophilus spp. require partial anaerobic conditions during the period of incubation (5%, CO2).” for “tested.”

[11] = tested on: H. influenzae ATCC 49247; assay: In vitro antibacterial activity, MBC; type: cell-based; details: Haemophilus influenzae
Description: as §1, with “In particular, three azithromycin solutions at different pH (6.5, 7.2, 7.8) in citrate-phosphate have been examined.” left out, “tested. […] Incubation for Staphylococcus spp. and Pseudomonas spp. needs aerobic conditions whereas Streptococcus spp. and Haernophilus spp. require partial anaerobic conditions during the period of incubation (5%, CO2).” for “tested.”

[12] = tested on: St. Pyogenes ATCC 21547; assay: In vitro antibacterial activity, MBC; type: cell-based; details: Streptococcus pyogenes
Description: as §1, with “In particular, three azithromycin solutions at different pH (6.5, 7.2, 7.8) in citrate-phosphate have been examined.” left out, “tested. […] Incubation for Staphylococcus spp. and Pseudomonas spp. needs aerobic conditions whereas Streptococcus spp. and Haernophilus spp. require partial anaerobic conditions during the period of incubation (5%, CO2).” for “tested.”

[13] = in vivo; details: rabbit, topical or ocular, Ct (tissue concentration of azithromycin)
Description: Twelve male white New Zealand rabbits (weighing 1.8-2.3 kg) have been randomly divided in three groups (consisting of four animals each).
I Group: three instillations (animals have been sacrificed 6 hours after the first dosing)
II Group: six instillations (animals have been sacrificed 12 hours after the first dosing)
III Group: six instillations (animals have been sacrificed 24 hours after the first dosing)
Aqueous humor has been drawn away with a 23-gauge needle attached to an insulin syringe of 1 ml. After enucleation the cornea has been excised at the limbus and removed from the eyeball. All specimens have been carefully weighed, then immediately frozen at -20° C. […] Each specimen has been ground and homogenized with 1 ml of PBS (2 min., 24,000 rpm). The suspension has been mixed with an equal volume of acetonitrile and stored at 0° C. After 1 hour, the samples have been centrifuged at 0° C. […] Aqueous humor has been directly mixed with acetonitrile before being centrifuged.

CC[C@H]1OC(=O)[C@H](C)[C@@H](O[C@H]2C[C@@](C)(OC)[C@@H](O)[C@H](C)O2)[C@H](C)[C@@H](O[C@@H]2O[C@H](C)C[C@H](N(C)C)[C@H]2O)[C@](C)(O)C[C@@H](C)CN(C)[C@H](C)[C@@H](O)[C@]1(C)O [azithromycin]
MIC ([1]; ATCC9006, pH 6.5): 3 mg/L (≈ 4.01 µM) | MIC ([1]; ATCC9006, pH 7.2): 2 mg/L (≈ 2.67 µM) | MIC ([1]; ATCC9006, pH 7.8): 0.5 mg/L (≈ 0.668 µM) | MIC ([2]; ATCC49247, pH 6.5): 3 mg/L (≈ 4.01 µM) | MIC ([2]; ATCC49247, pH 7.2): 2 mg/L (≈ 2.67 µM) | MIC ([2]; ATCC49247, pH 7.8): 1 mg/L (≈ 1.34 µM) | MBC ([3]; ATCC27853, pH 7.2): 100 mg/L (≈ 134 µM) | MBC ([3]; ATCC27853, pH 7.5): 50 mg/L (≈ 66.8 µM) | MBC ([4]; ATCC29213, pH 6.5): > 4 mg/L | MBC ([4]; ATCC29213, pH 7.2): > 4 mg/L | MBC ([4]; ATCC29213, pH 7.5): 2.25 mg/L (≈ 3 µM) | MBC ([5]; pH 6.5): > 4 mg/L | MBC ([5]; pH 7.2): 2.5 mg/L (≈ 3.34 µM) | MBC ([5]; pH 7.5): 1.75 mg/L (≈ 2.34 µM) | MBC ([6]; ATCC12228, pH 6.5): > 4 mg/L | MBC ([6]; ATCC12228, pH 7.2): 3 mg/L (≈ 4.01 µM) | MBC ([6]; ATCC12228, pH 7.5): 2 mg/L (≈ 2.67 µM) | MBC ([7]; ATCC9027, pH 7.2): > 200 mg/L | MBC ([7]; ATCC9027, pH 7.5): 200 mg/L (≈ 267 µM) | MBC ([8]; ATCC25923, pH 6.5): > 4 mg/L | MBC ([8]; ATCC25923, pH 7.2): 3.25 mg/L (≈ 4.34 µM) | MBC ([8]; ATCC25923, pH 7.5): 2 mg/L (≈ 2.67 µM) | MBC ([9]; ATCC49619, pH 6.5): 3 mg/L (≈ 4.01 µM) | MBC ([9]; ATCC49619, pH 7.2): 0.45 mg/L (≈ 0.601 µM) | MBC ([9]; ATCC49619, pH 7.5): 0.3 mg/L (≈ 0.401 µM) | MBC ([10]; ATCC9006, pH 6.5): 6 mg/L (≈ 8.01 µM) | MBC ([10]; ATCC9006, pH 7.2): 3.5 mg/L (≈ 4.67 µM) | MBC ([10]; ATCC9006, pH 7.5): 3.5 mg/L (≈ 4.67 µM) | MBC ([11]; ATCC49247, pH 6.5): 7 mg/L (≈ 9.35 µM) | MBC ([11]; ATCC49247, pH 7.2): 3.5 mg/L (≈ 4.67 µM) | MBC ([11]; ATCC49247, pH 7.5): 3 mg/L (≈ 4.01 µM) | MBC ([12]; ATCC21547, pH 6.5): 3 mg/L (≈ 4.01 µM) | MBC ([12]; ATCC21547, pH 7.2): 0.6 mg/L (≈ 0.801 µM) | MBC ([12]; ATCC21547, pH 7.5): 0.35 mg/L (≈ 0.467 µM) | concentration at 6 h [13]: < 100000 ng/g | concentration at 24 h [13]: 216000 ng/g | concentration at 12 h ([13]; Average): 222000 ng/g | concentration at 24 h ([13]; Average): 169000 ng/g
